According to PubChem BioAssay AID1988 (Broad Institute, 2009):
Records with an inconclusive call do not appear.

System: H4 cells, SNCA 5'UTR luciferase reporter translation
Experiment: inhibitors of SNCA 5'UTR-driven reporter translation, confirmation, luminescence (AID 1988)

`C=C(C=O)CC1CC(O)[C@]2(C)OC3CC4OC5C[C@]6(C)O[C@]7(C)CCC8OC9C[C@]%10(C)OC%11C(C)=CC(=O)OC%11CC%10OC9C[C@@H](C)C8OC7CC6O[C@]5(C)CC5OC5C4OC3CC2O1` (stereo partly drawn) and `C#CCOCCOCCOCCNc1nc(N2CCN(C(=O)CCCCCCCCCCNC(=O)[C@H](CO)n3cc(CCCSC)nn3)CC2)nc(N2CCN(C(=O)CCCCCCCCCCNC(=O)[C@H](CCCCN)n3cc(C[C@@H](C)CC)nn3)CC2)n1` are within 1.5-fold of each other in EC50: 7.35 µM for the first, 7.11 µM for the second.

For `COc1ccc(O)c2c(=O)c3c(OC)cc4c(c3oc12)C1C=COC1O4` (stereo not drawn), the EC50 was under 0.1 µM.
